{"source": "patent US10865391B2", "about": "“Glutamate dehydrogenase mutants and their application in preparation of L-phosphinothricin” (ZHEJIANG UNIVERSITY, priority 2018, dated 2020)", "assay_type_in_all_cases": "biochemical, Pseudomonas putida", "key": {"PpGluDH-A167G": {"test_system": "PpGluDH-A167G", "assay": "Catalytic activity toward other keto acid substrates by spectrophotometry, A167G mutant", "settings": "keto acid as substrate; for Specific activity (U/mg) A167G: PpGluDH-A167G; for Catalytic activity of PpGluDH-A167G compared with the wild type: result in words"}, "wild type PpGluDH": {"test_system": "wild type PpGluDH", "assay": "Catalytic activity toward other keto acid substrates by spectrophotometry, wild type", "settings": "keto acid as substrate"}, "PpGluDH-V378A": {"test_system": "PpGluDH-V378A", "assay": "Catalytic activity toward other keto acid substrates by spectrophotometry, V378A mutant", "settings": "keto acid as substrate; for Specific activity (U/mg) V378A: PpGluDH-V378A; for Catalytic activity of PpGluDH-V378A compared with the wild type: result in words"}}}
{"compound": "CCCC(=O)C(=O)O", "note": "[6a, 2-Oxovaleric acid]", "values": [{"measurement": "Specific activity (U/mg) A167G", "setting": "PpGluDH-A167G", "result": 1.21, "unit": "U/mg"}, {"measurement": "Specific activity (U/mg) Wild", "setting": "wild type PpGluDH", "result": 6.39, "unit": "U/mg"}, {"measurement": "Specific activity (U/mg) V378A", "setting": "PpGluDH-V378A", "result": 2.37, "unit": "U/mg"}]}
{"compound": "O=C(O)C(=O)Cc1ccc(O)cc1", "note": "[13a, 4-hydroxyphenylpyruvic acid]", "values": [{"measurement": "Specific activity (U/mg) A167G", "setting": "PpGluDH-A167G", "result": "<0.01", "unit": "U/mg"}, {"measurement": "Specific activity (U/mg) Wild", "setting": "wild type PpGluDH", "result": 0.02, "unit": "U/mg"}, {"measurement": "Specific activity (U/mg) V378A", "setting": "PpGluDH-V378A", "result": "<0.01", "unit": "U/mg"}]}
{"compound": "CC(C)CC(=O)C(=O)O", "note": "[8a, 4-Methyl-2-Oxovaleric acid]", "values": [{"measurement": "Specific activity (U/mg) A167G", "setting": "PpGluDH-A167G", "result": 0.01, "unit": "U/mg"}, {"measurement": "Specific activity (U/mg) Wild", "setting": "wild type PpGluDH", "result": 0.05, "unit": "U/mg"}, {"measurement": "Specific activity (U/mg) V378A", "setting": "PpGluDH-V378A", "result": 0.03, "unit": "U/mg"}]}
{"compound": "CC(=O)C(=O)O", "note": "[2a, Pyruvic acid]", "values": [{"measurement": "Specific activity (U/mg) A167G", "setting": "PpGluDH-A167G", "result": "<0.01", "unit": "U/mg"}, {"measurement": "Specific activity (U/mg) Wild", "setting": "wild type PpGluDH", "result": 0.15, "unit": "U/mg"}, {"measurement": "Specific activity (U/mg) V378A", "setting": "PpGluDH-V378A", "result": 0.01, "unit": "U/mg"}]}
{"compound": "O=C(O)CCC(=O)C(=O)O", "note": "[1a, 2-Ketoglutaric acid]", "values": [{"measurement": "Specific activity (U/mg) A167G", "setting": "PpGluDH-A167G", "result": 314.41, "unit": "U/mg"}, {"measurement": "Catalytic activity of PpGluDH-A167G compared with the wild type", "setting": "PpGluDH-A167G", "result": "improved catalytic activity"}, {"measurement": "Specific activity (U/mg) Wild", "setting": "wild type PpGluDH", "result": 189.05, "unit": "U/mg"}, {"measurement": "Specific activity (U/mg) V378A", "setting": "PpGluDH-V378A", "result": 268.48, "unit": "U/mg"}, {"measurement": "Catalytic activity of PpGluDH-V378A compared with the wild type", "setting": "PpGluDH-V378A", "result": "improved catalytic activity"}]}
{"compound": "O=C(O)C(=O)Cc1ccccc1", "note": "[11a, Phenylpyruvic acid]", "values": [{"measurement": "Specific activity (U/mg) A167G", "setting": "PpGluDH-A167G", "result": "<0.01", "unit": "U/mg"}, {"measurement": "Specific activity (U/mg) Wild", "setting": "wild type PpGluDH", "result": "<0.01", "unit": "U/mg"}, {"measurement": "Specific activity (U/mg) V378A", "setting": "PpGluDH-V378A", "result": "<0.01", "unit": "U/mg"}]}
{"compound": "CC(C)C(=O)C(=O)O", "note": "[4a, 3-Methyl-2-oxobutanoic acid]", "values": [{"measurement": "Specific activity (U/mg) A167G", "setting": "PpGluDH-A167G", "result": "<0.01", "unit": "U/mg"}, {"measurement": "Specific activity (U/mg) Wild", "setting": "wild type PpGluDH", "result": 0.37, "unit": "U/mg"}, {"measurement": "Specific activity (U/mg) V378A", "setting": "PpGluDH-V378A", "result": 0.04, "unit": "U/mg"}]}
{"compound": "CCC(=O)C(=O)O", "note": "[3a, 2-Ketobutyric acid]", "values": [{"measurement": "Specific activity (U/mg) A167G", "setting": "PpGluDH-A167G", "result": 0.09, "unit": "U/mg"}, {"measurement": "Specific activity (U/mg) Wild", "setting": "wild type PpGluDH", "result": 4.93, "unit": "U/mg"}, {"measurement": "Specific activity (U/mg) V378A", "setting": "PpGluDH-V378A", "result": 0.34, "unit": "U/mg"}]}
{"compound": "O=C(O)C(=O)CCc1ccccc1", "note": "[12a, 2-Oxo-4-phenylbutyric acid]", "values": [{"measurement": "Specific activity (U/mg) A167G", "setting": "PpGluDH-A167G", "result": 0.33, "unit": "U/mg"}, {"measurement": "Catalytic activity of PpGluDH-A167G compared with the wild type", "setting": "PpGluDH-A167G", "result": "improved to some extent"}, {"measurement": "Specific activity (U/mg) Wild", "setting": "wild type PpGluDH", "result": 0.08, "unit": "U/mg"}, {"measurement": "Specific activity (U/mg) V378A", "setting": "PpGluDH-V378A", "result": 0.04, "unit": "U/mg"}, {"measurement": "Catalytic activity of PpGluDH-V378A compared with the wild type", "setting": "PpGluDH-V378A", "result": "decreased"}]}
{"compound": "O=C(O)C(=O)c1ccccc1", "note": "[10a, Phenylglyoxylic acid]", "values": [{"measurement": "Specific activity (U/mg) A167G", "setting": "PpGluDH-A167G", "result": 0.01, "unit": "U/mg"}, {"measurement": "Specific activity (U/mg) Wild", "setting": "wild type PpGluDH", "result": 0.04, "unit": "U/mg"}, {"measurement": "Specific activity (U/mg) V378A", "setting": "PpGluDH-V378A", "result": 0.01, "unit": "U/mg"}]}
{"compound": "CCC(C)C(=O)C(=O)O", "note": "(stereo not drawn) [7a, 3-Methyl-2-Oxovaleric acid]", "values": [{"measurement": "Specific activity (U/mg) A167G", "setting": "PpGluDH-A167G", "result": "<0.01", "unit": "U/mg"}, {"measurement": "Specific activity (U/mg) Wild", "setting": "wild type PpGluDH", "result": 0.07, "unit": "U/mg"}, {"measurement": "Specific activity (U/mg) V378A", "setting": "PpGluDH-V378A", "result": 0.03, "unit": "U/mg"}]}
{"compound": "CCCCC(=O)C(=O)O", "note": "[9a, 2-Ketohexanoic acid]", "values": [{"measurement": "Specific activity (U/mg) A167G", "setting": "PpGluDH-A167G", "result": 1.23, "unit": "U/mg"}, {"measurement": "Catalytic activity of PpGluDH-A167G compared with the wild type", "setting": "PpGluDH-A167G", "result": "improved catalytic activity"}, {"measurement": "Specific activity (U/mg) Wild", "setting": "wild type PpGluDH", "result": 0.71, "unit": "U/mg"}, {"measurement": "Specific activity (U/mg) V378A", "setting": "PpGluDH-V378A", "result": 1.49, "unit": "U/mg"}, {"measurement": "Catalytic activity of PpGluDH-V378A compared with the wild type", "setting": "PpGluDH-V378A", "result": "improved catalytic activity"}]}
